Data set [1] is filed under the species Homo sapiens. The data set is described as follows: Selectivity index, ratio of IC50 for HDAC1 (unknown origin) to HDAC6 (unknown origin).
Data set [2] has as its target Histone deacetylase 1 (Homo sapiens, UniProt Q13547).
Description: Inhibition of HDAC1 (unknown origin)
In data set [3] the target is T1, Protein deacetylase HDAC6 (Homo sapiens, UniProt Q9UBN7).
T1 sequence (Q9UBN7 whole entry): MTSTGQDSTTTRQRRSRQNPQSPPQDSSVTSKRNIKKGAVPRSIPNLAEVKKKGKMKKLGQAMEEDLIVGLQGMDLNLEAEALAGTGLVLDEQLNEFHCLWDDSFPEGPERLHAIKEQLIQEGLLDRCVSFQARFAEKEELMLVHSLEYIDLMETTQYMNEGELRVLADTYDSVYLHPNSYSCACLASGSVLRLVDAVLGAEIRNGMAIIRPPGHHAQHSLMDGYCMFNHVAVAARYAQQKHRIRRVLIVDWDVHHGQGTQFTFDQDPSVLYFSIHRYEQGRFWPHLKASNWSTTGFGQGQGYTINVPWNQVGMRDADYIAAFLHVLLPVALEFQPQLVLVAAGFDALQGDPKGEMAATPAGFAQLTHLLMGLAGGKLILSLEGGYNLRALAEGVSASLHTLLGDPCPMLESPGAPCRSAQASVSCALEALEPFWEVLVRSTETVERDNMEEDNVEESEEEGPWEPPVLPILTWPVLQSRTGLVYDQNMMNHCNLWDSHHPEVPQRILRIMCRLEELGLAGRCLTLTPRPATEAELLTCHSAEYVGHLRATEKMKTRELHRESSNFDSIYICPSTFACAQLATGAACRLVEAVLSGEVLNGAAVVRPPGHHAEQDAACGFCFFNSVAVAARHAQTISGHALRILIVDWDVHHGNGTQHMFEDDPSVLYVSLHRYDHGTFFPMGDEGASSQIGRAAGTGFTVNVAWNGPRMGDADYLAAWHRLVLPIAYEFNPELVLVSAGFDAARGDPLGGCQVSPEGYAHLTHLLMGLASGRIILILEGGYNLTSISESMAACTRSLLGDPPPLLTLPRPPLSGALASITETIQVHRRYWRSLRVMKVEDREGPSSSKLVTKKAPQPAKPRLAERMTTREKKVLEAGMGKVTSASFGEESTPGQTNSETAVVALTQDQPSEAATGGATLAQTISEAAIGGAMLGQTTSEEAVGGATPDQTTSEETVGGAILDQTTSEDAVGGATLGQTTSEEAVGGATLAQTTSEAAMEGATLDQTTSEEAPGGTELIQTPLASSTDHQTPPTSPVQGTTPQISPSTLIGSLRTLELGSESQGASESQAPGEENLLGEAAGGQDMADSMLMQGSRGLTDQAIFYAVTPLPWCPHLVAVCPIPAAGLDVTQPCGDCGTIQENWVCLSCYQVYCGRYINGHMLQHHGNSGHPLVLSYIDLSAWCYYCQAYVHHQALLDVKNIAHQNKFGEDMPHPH
Description: Inhibition of HDAC6 (unknown origin)

The target of data set [4] is T2, Histone deacetylase 11 (Homo sapiens, UniProt Q96DB2).
T2 sequence (Q96DB2 whole entry): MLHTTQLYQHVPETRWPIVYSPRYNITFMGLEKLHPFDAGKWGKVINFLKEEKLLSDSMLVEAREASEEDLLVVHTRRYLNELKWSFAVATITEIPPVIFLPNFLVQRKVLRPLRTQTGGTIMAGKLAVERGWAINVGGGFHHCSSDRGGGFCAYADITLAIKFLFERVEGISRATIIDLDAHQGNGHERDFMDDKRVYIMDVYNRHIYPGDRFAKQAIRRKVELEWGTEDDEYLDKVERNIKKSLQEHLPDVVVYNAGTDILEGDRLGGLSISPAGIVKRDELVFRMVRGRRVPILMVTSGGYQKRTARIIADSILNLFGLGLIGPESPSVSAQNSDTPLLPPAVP
The data set is described as follows: Inhibition of human HDAC11 expressed in HEK293/T17 cells pre-incubated for 10 mins before […] addition and measured after 30 mins by fluorescence-based assay. The format is cell-based.

For data set [5], the system named is HEK293. Description: Selectivity index, ratio of IC50 for human HDAC1 expressed in HEK293/T17 cells (unknown origin) to human HDAC6 expressed in HEK293/T17 cells. It counts as cell-based.
Data set [6] concerns HEK293. Description: Selectivity index, ratio of IC50 for human HDAC2 expressed in HEK293/T17 cells (unknown origin) to human HDAC6 expressed in HEK293/T17 cells. The format is cell-based.
In data set [7] the test system is HEK293. Description: Selectivity index, ratio of IC50 for human HDAC3 expressed in HEK293/T17 cells (unknown origin) to human HDAC6 expressed in HEK293/T17 cells. It counts as cell-based.
Data set [8] deals with HEK293. Description: Selectivity index, ratio of IC50 for human HDAC4 expressed in HEK293/T17 cells (unknown origin) to human HDAC6 expressed in HEK293/T17 cells. The format is cell-based.
The subject of data set [9] is HEK293. Description: Selectivity index, ratio of IC50 for human HDAC5 expressed in HEK293/T17 cells (unknown origin) to human HDAC6 expressed in HEK293/T17 cells. It counts as cell-based.
Data set [10] deals with HEK293. Description: Selectivity index, ratio of IC50 for human HDAC6 expressed in HEK293/T17 cells (unknown origin) to human HDAC6 expressed in HEK293/T17 cells. It counts as cell-based.
Data set [11] has as its system HEK293. The data set is described as follows: Selectivity index, ratio of IC50 for human HDAC7 expressed in HEK293/T17 cells (unknown origin) to human HDAC6 expressed in HEK293/T17 cells. The format is cell-based.
Data set [12] concerns HEK293. The data set is described as follows: Selectivity index, ratio of IC50 for human HDAC8 expressed in HEK293/T17 cells (unknown origin) to human HDAC6 expressed in HEK293/T17 cells. It counts as cell-based.
The subject of data set [13] is HEK293. The data set is described as follows: Selectivity index, ratio of IC50 for human HDAC9 expressed in HEK293/T17 cells (unknown origin) to human HDAC6 expressed in HEK293/T17 cells. The format is cell-based.
Data set [14] can be described thus: Half life in PBS by LC-MS/MS analysis. The format is physicochemical.
Data set [15] in a line: Half life in SGF by LC-MS/MS analysis. It counts as ADME.
The nature of data set [16]: Half life in human plasma at 10 uM by LC-MS/MS analysis. It counts as ADME, cell-free.
Data set [17] in a line: Half life in rat liver microsome at 10 uM by LC-MS/MS analysis. The format is ADME. The conditions noted are these: liver microsomes. On the technique in general: Liver microsomes are a subcellular fraction often used to study metabolism.
Data set [18] can be described thus: Protein binding in human plasma at 10 uM incubated for 1 hr by LC-MS/MS analysis. It counts as ADME, cell-free. Conditions: read-out: PPB (converted).
The target of data set [19] is T3, Protein deacetylase HDAC6 (Homo sapiens) (UniProt Q9UBN7).
T3 sequence (whole entry): T1 sequence (Q9UBN7 whole entry)
The data set is described as follows: Inhibition of human HDAC6 in human WM164 cells increase in acetylated alpha-tubulin levels at 0.1 to 10 uM by immunoblot analysis. The format is cell-based. Conditions: dose microM 0.1-10.

In data set [20] the target is Histone deacetylase (Homo sapiens) (UniProt Q13547+O15379+Q9UBN7+Q92769+Q9UQL6+Q8WUI4+Q9BY41+Q96DB2+P56524+Q9UKV0+Q969S8). The data set is described as follows: Inhibition of human HDAC in human WM164 cells increase in acetylated histone H3 levels at 0.1 to 10 uM by immunoblot analysis. It counts as cell-based. Conditions: dose microM 0.1-10. In general terms: In western blotting, separated proteins are transferred to a membrane and probed.

The target in data set [21] is T3, Protein deacetylase HDAC6 (Homo sapiens). The data set is described as follows: Inhibition of human HDAC6 in human WM164 cells assessed as decrease in STAT3 Y705 phosphorylation at 5 uM pre-incubated before IL6 stimulation for 20 mins by immunoblot analysis. It counts as cell-based.
Data set [22] deals with SM1. Description: Potentiation of antitumor immune response in C57BL/6 mouse harboring mouse SM1 cells assessed as decrease in tumor burden at 25 mg/kg, ip dosed 5 days per week before starting 15 mg/kg, ip anti-PD1 immune checkpoint blockade therapy measured on day 14. It counts as functional, organism-based. The conditions noted are these: time 14.0 day.
Data set [23] deals with SM1. Description: Potentiation of antitumor immune response in C57BL/6 mouse harboring mouse SM1 cells assessed as decrease in tumor burden at 25 mg/kg, ip dosed 5 days per week before starting 15 mg/kg, ip anti-PD1 immune checkpoint blockade therapy measured on day 20. It counts as functional, organism-based. The conditions noted are these: time 20.0 day.
For data set [24], the system named is SM1. The data set is described as follows: Cytotoxicity in mouse SM1 cells assessed as reduction in cell viability up to 25 uM. The conditions noted are these: dose microM <=25. The format is functional, cell-based.

Here are results for 6 molecules from ChEMBL document CHEMBL4725372, “Rational Design of Suprastat: A Novel Selective Histone Deacetylase 6 Inhibitor with the Ability to Potentiate Immunotherapy in Melanoma Models” (J Med Chem, 2020).

Active and inactive are the calls of the source.

Histone deacetylase 1, sequence (Q13547 whole entry): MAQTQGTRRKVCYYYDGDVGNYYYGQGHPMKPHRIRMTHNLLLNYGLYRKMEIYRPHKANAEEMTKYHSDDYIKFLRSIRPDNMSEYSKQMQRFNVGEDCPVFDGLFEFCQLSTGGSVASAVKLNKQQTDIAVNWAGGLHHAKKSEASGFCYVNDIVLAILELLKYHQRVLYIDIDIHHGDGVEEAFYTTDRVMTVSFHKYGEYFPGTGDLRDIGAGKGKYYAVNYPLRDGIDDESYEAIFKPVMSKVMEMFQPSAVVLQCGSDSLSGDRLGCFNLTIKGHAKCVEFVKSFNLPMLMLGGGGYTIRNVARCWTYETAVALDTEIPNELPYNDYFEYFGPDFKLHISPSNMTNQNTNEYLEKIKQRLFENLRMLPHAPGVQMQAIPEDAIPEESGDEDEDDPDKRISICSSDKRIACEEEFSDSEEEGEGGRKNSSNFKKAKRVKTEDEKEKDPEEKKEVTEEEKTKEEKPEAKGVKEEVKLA

Regarding `O=C(NO)c1ccc(CN(CCCO)C(=O)Cc2ccccc2)cc1`, the Ratio IC50 in [1] is 36. The 50% inhibitory concentration (IC50) (in general, the concentration that inhibits the measured activity by half) was 1.13 µM in [2] and 0.031 µM in [3].

As for `C[C@H](NC(=O)[C@H](CC(=O)NC(C)(C)C)NC(=O)c1ccc(C(=O)NO)cc1)C(=O)NCc1ccccc1`, the Ratio IC50 in data set [1] was 26. Besides, the IC50 in data set [2] worked out at 6.9 µM; in [3], 0.27 µM.

`CCCCN(Cc1ccc(C(=O)NO)cc1)C(=O)Nc1ccc(CN)cc1` displayed a half-inhibitory concentration (IC50) in [4] of more than 50 µM. Moreover, the Ratio IC50 in data set [5] turned out to be 89; in [6], 312; in [7], 492; in data set [8], 25700; in data set [9], 11200; in data set [10], 1. The figures for the Ratio IC50 in [11], in data set [12] and in data set [13] were 10000, 682 and 19200, respectively. Also, the results for the half-life in data set [14] and in data set [15] were more than 24 h and more than 5 h, respectively. For the same molecule, the half-life – broadly, the time needed for the level to fall by half in the phase considered – at 10 µM is more than 5 h in data set [16] and 2.88 h in data set [17]. Moreover, the fraction unbound at 1 h, 10 µM in data set [18] is 0.53. Further, in data set [19], the inhibition entry was “Dose-dependent effect”. Besides, the inhibition entry in [20] is “Active”.

For `O=C(NO)c1cnc(NC2(c3ccccc3)CCC(F)(F)CC2)nc1`, in [1], the Ratio IC50 worked out at 260.

`CCCCN(Cc1ccc(C(=O)NO)cc1)C(=O)Nc1ccccc1` [NEXTURASTAT A]: the results for the half-life in [14] and in data set [15] were more than 24 h and more than 5 h, respectively. The half-life at 10 µM was more than 5 h in [16] and 7.05 h in data set [17]. Further, the fraction unbound at 1 h, 10 µM in data set [18] was 0.11. Moreover, in data set [19], the inhibition result is “Dose-dependent effect”. The inhibition entry in [20] and in data set [21] was “Active” throughout. For the same molecule, the TGI entry in data set [22] was “Active”. Besides, in data set [23], the outcome was Active.

With `O=C(NO)c1ccc(CN(CCCCO)C(=O)Nc2ccccc2)cc1`, the IC50 in data set [4] was more than 50 µM. Moreover, the Ratio IC50 in data set [5] is 296; in data set [6] it was 536; in data set [7] it was 1160; in data set [8], 27900; in data set [9] it was 18300; in data set [10], 1. Further, the Ratio IC50 in [11] was found to be 3870; in data set [12] it was 956; in data set [13] it was 59500. The half-life in [14] was more than 24 h; in [15] it was more than 5 h. For the same molecule, the half-life at 10 µM in data set [16] is more than 5 h; in data set [17], 3.3 h. Besides, the fraction unbound at 1 h, 10 µM in [18] was 0.52. The inhibition entry in data set [19] is “Dose-dependent effect”. Moreover, the inhibition entry in data set [20] was “Active”. Also, in data set [24], the result was inactive.
